Converted amounts (≈) assume the structure as drawn. Like-named read-outs stand apart in the source and are kept apart here.
Tests used:
Assay type in all cases: cell-based
[1] = tested on: Staphylococcus aureus 45 RAR 2; assay: microbe, parasite or virus in culture; settings: 45RAR2
Procedure: (§1) The antimicrobial spectra of a number of compounds of the invention were tested by the following method:
(§2) Twelve petri dishes containing successive aqueous dilutions of the test compound mixed with 10 ml of sterilized Brain Heart Infusion agar (Difco 0418-01-5) are prepared. Each plate is inoculated with 1:100 (or 1:10 for slow growing strains, primarily Micrococcus and Streptococcus) dilutions of up to 32 different microorganisms, using a Steers replicator block The inoculated plates are incubated at 35°-37° C. for 20-24 hours. In addition, a control plate, using BHI agar containing no test compound, is prepared and incubated at the beginning and end of each test.
(§3) An additional plate containing a compound having known susceptibility patterns for the organisms being tested and belonging to the same antibiotic class as the test compound is also prepared and incubated as a further control, as well as to provide test-to-test comparability. Erythromycin A was used for this purpose.
(§4) After incubation, each disk is read. The MIC is defined as the lowest concentration of drug yielding no growth, a slight haze, or sparsely isolated colonies on the inoculum spot as compared to the growth control.

[2] = tested on: Streptococcus pyogenes EES61; assay: In vitro antibacterial activity, agar dilution MIC; settings: S. pyogenes EES61, Brain Heart Infusion agar, 20-24 hours, read-out: MIC
Procedure: as §1, §2, §3, §4

[3] = tested on: Staphylococcus aureus CMX 686B; assay: In vitro antibacterial activity, agar dilution MIC; settings: CMX686B, S. aureus CMX 686B, Brain Heart Infusion agar, 20-24 hours, read-out: MIC
Procedure: as §1, §2, §3, §4

Escherichia coli SS = assay: In vitro antibacterial activity, agar dilution MIC; settings: E. coli SS, Brain Heart Infusion agar, 20-24 hours, read-out: MIC
Procedure: as §1, §2, §3, §4

[4] = tested on: Streptococcus pyogenes 2548 INDUC; assay: In vitro antibacterial activity, agar dilution MIC; settings: S. pyogenes 2548 INDUC, Brain Heart Infusion agar, 20-24 hours, read-out: MIC
Procedure: as §1, §2, §3, §4

[5] = tested on: Micrococcus luteus ATCC 9341; assay: In vitro antibacterial activity, agar dilution MIC
Procedure: as §1, §2, §3, §4

[6] = tested on: Micrococcus luteus ATCC 4698; assay: In vitro antibacterial activity, agar dilution MIC; settings: ATCC4698, M. luteus ATCC 4698, Brain Heart Infusion agar, 20-24 hours, read-out: MIC
Procedure: as §1, §2, §3, §4

[7] = tested on: Staphylococcus aureus A5177; assay: In vitro antibacterial activity, agar dilution MIC; settings: S. aureus A5177, Brain Heart Infusion agar, 20-24 hours, read-out: MIC
Procedure: as §1, §2, §3, §4

[8] = tested on: Staphylococcus epidermidis 3519; assay: In vitro antibacterial activity, agar dilution MIC; settings: S. epidermidis 3519, Brain Heart Infusion agar, 20-24 hours, read-out: MIC
Procedure: as §1, §2, §3, §4

[9] = tested on: Streptococcus agalactiae CMX 508; assay: In vitro antibacterial activity, agar dilution MIC
Procedure: as §1, §2, §3, §4

[10] = tested on: Staphylococcus aureus CMX 503A; assay: In vitro antibacterial activity, agar dilution MIC; settings: CMX503A, S. aureus CMX 503A, Brain Heart Infusion agar, 20-24 hours, read-out: MIC
Procedure: as §1, §2, §3, §4

[11] = tested on: Enterococcus faecium ATCC 8043; assay: In vitro antibacterial activity, agar dilution MIC; settings: ATCC8043, E. faecium ATCC 8043, Brain Heart Infusion agar, 20-24 hours, read-out: MIC
Procedure: as §1, §2, §3, §4

Escherichia coli H560 = assay: In vitro antibacterial activity, agar dilution MIC; settings: H560
Procedure: as §1, §2, §3, §4

[12] = tested on: Streptococcus bovis A5169; assay: In vitro antibacterial activity, agar dilution MIC
Procedure: as §1, §2, §3, §4

[13] = tested on: Staphylococcus aureus ATCC 6538P; assay: In vitro antibacterial activity, agar dilution MIC; settings: ATCC6538P, S. aureus ATCC 6538P, Brain Heart Infusion agar, 35-37° C., 20-24 hours, read-out: MIC
Procedure: as §1, §2, §3, §4

Escherichia coli DC-2 = assay: In vitro antibacterial activity, agar dilution MIC; settings: DC2, E. coli DC-2, Brain Heart Infusion agar, 20-24 hours, read-out: MIC
Procedure: as §1, §2, §3, §4

[14] = tested on: Staphylococcus aureus CMX 553; assay: In vitro antibacterial activity, agar dilution MIC; settings: CMX553, S. aureus CMX 553, Brain Heart Infusion agar, 20-24 hours, read-out: MIC
Procedure: as §1, §2, §3, §4

Escherichia coli Juhl = assay: In vitro antibacterial activity, agar dilution MIC; settings: E. coli Juhl, Brain Heart Infusion agar, 20-24 hours, read-out: MIC
Procedure: as §1, §2, §3, §4

Staphylococcus aureus 45 = assay: In vitro antibacterial activity, agar dilution MIC; settings: S. aureus 45, Brain Heart Infusion agar, 20-24 hours, read-out: MIC
Procedure: as §1, §2, §3, §4

[15] = tested on: Streptococcus pyogenes 930 CONST; assay: In vitro antibacterial activity, agar dilution MIC
Procedure: as §1, §2, §3, §4

| SMILES | MIC [1] | MIC [2] | MIC [3] | MIC (Escherichia coli SS) | MIC [4] | MIC [6] | MIC [7] | MIC [8] | MIC [10] | MIC [11] | MIC (Escherichia coli H560) | MIC [13] | MIC (Escherichia coli DC-2) | MIC [14] | MIC (Escherichia coli Juhl) | MIC (Staphylococcus aureus 45) | other results |
| --- | --- | --- | --- | --- | --- | --- | --- | --- | --- | --- | --- | --- | --- | --- | --- | --- | --- |
| CC[C@H]1OC(=O)[C@H](C)[C@@H](O[C@H]2C[C@@](C)(OC)[C@@H](O)[C@H](C)O2)[C@H](C)[C@@H](O[C@@H]2O[C@H](C)C[C@H](N(C)C)[C@H]2O)[C@](C)(O)C[C@@H](C)[C@@H](N2CCN(C(C)=O)CC2)[C@H](C)[C@@H](O)[C@]1(C)O [Example 16] | 3.1 µg/mL (≈ 3.66 µM) | 0.1 µg/mL (≈ 0.118 µM) | 1.56 µg/mL (≈ 1.84 µM) | 1.56 µg/mL (≈ 1.84 µM) | 50 µg/mL (≈ 59.1 µM) | 1.56 µg/mL (≈ 1.84 µM) | 50 µg/mL (≈ 59.1 µM) | 1.56 µg/mL (≈ 1.84 µM) | 1.56 µg/mL (≈ 1.84 µM) | 0.78 µg/mL (≈ 0.922 µM) | 50 µg/mL (≈ 59.1 µM) | 1.56 µg/mL (≈ 1.84 µM) | > 100 µg/mL | 1.56 µg/mL (≈ 1.84 µM) | > 100 µg/mL | 1.56 µg/mL (≈ 1.84 µM) | MIC ([5]; ATCC9341, read-out: MIC): 0.2 µg/mL (≈ 0.236 µM); MIC ([9]; CMX508, S. agalactiae CMX 508, Brain Heart Infusion agar, 20-24 hours, read-out: MIC): 0.39 µg/mL (≈ 0.461 µM); MIC [12]: 0.1 µg/mL (≈ 0.118 µM); MIC ([15]; 930CONST): > 100 µg/mL |
| CC[C@H]1OC(=O)[C@H](C)[C@@H](O[C@H]2C[C@@](C)(OC)[C@@H](O)[C@H](C)O2)[C@H](C)[C@@H](O[C@@H]2O[C@H](C)C[C@H](N(C)C)[C@H]2O)[C@](C)(O)C[C@@H](C)[C@@H](N2CCN(C(=O)OCc3ccccc3)CC2)[C@H](C)[C@@H](O)[C@]1(C)O [Example 18] | 1.56 µg/mL (≈ 1.66 µM) | 0.1 µg/mL (≈ 0.107 µM) | 0.78 µg/mL (≈ 0.831 µM) | 3.1 µg/mL (≈ 3.3 µM) | 12.5 µg/mL (≈ 13.3 µM) | 0.78 µg/mL (≈ 0.831 µM) | 12.5 µg/mL (≈ 13.3 µM) | 0.78 µg/mL (≈ 0.831 µM) | 0.78 µg/mL (≈ 0.831 µM) | 0.39 µg/mL (≈ 0.416 µM) | 50 µg/mL (≈ 53.3 µM) | 0.78 µg/mL (≈ 0.831 µM) | > 100 µg/mL | 0.78 µg/mL (≈ 0.831 µM) | > 100 µg/mL | 0.78 µg/mL (≈ 0.831 µM) | MIC ([5]; ATCC9341): 0.1 µg/mL (≈ 0.107 µM); MIC ([9]; CMX508, read-out: MIC): 0.2 µg/mL (≈ 0.213 µM); MIC ([12]; S. bovis A5169, Brain Heart Infusion agar, 20-24 hours, read-out: MIC): 0.05 µg/mL (≈ 0.0533 µM); MIC ([15]; S. pyogenes 930 CONST, Brain Heart Infusion agar, 20-24 hours, read-out: MIC): 50 µg/mL (≈ 53.3 µM) |
